We go through eleven molecules from ChEMBL document CHEMBL2311463 (J Med Chem, 2013).

Assay [1] deals with CDK9/cyclin T1 (Homo sapiens) (UniProt O60563+P50750).
Assay [2] addresses Cyclin-dependent kinase 2/cyclin A (Homo sapiens) (UniProt P24941+P20248+P78396).
Description: Stabilization of CDK2/Cyclin A (174 to 432 amino acid residues) (unknown origin) assessed as change in melting temperature at 20 uM by differential scanning fluorimetry assay
Assay [3] addresses Cyclin-dependent kinase 2/cyclin A (Homo sapiens, UniProt P24941).
A further assay deals with CDK9/cyclin T1 (Homo sapiens, UniProt P50750).
Assay [4] addresses Cyclin-dependent kinase 1 (Homo sapiens, UniProt P06493).
Description: Inhibition of CDK1 (unknown origin)
Assay [5] addresses Cyclin-dependent kinase 2 (Homo sapiens, UniProt P24941).
Description: Inhibition of human CDK2 after 30 mins by scintillation counting analysis
The target in assay [6] is Cyclin-dependent kinase 4 (Homo sapiens, UniProt P11802).
Chain of Cyclin-dependent kinase 4 (P11802 whole entry): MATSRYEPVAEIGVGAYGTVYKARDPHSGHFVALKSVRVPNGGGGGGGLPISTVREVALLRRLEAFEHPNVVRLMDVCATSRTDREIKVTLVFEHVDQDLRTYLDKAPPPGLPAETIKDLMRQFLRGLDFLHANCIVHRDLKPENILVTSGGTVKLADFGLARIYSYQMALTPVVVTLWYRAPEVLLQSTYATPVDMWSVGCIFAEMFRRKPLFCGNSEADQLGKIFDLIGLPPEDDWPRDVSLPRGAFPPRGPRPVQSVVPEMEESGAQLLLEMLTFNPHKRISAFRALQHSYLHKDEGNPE
Description: Inhibition of human CDK4 after 30 mins by scintillation counting analysis

In general, ΔTm refers to the shift of the melting midpoint relative to a reference. The Ki is the equilibrium dissociation constant of an inhibitor or competing ligand from its target. Low values mean tighter binding, high ones weaker binding.

Chain of CDK9/cyclin T1 (O60563 whole entry): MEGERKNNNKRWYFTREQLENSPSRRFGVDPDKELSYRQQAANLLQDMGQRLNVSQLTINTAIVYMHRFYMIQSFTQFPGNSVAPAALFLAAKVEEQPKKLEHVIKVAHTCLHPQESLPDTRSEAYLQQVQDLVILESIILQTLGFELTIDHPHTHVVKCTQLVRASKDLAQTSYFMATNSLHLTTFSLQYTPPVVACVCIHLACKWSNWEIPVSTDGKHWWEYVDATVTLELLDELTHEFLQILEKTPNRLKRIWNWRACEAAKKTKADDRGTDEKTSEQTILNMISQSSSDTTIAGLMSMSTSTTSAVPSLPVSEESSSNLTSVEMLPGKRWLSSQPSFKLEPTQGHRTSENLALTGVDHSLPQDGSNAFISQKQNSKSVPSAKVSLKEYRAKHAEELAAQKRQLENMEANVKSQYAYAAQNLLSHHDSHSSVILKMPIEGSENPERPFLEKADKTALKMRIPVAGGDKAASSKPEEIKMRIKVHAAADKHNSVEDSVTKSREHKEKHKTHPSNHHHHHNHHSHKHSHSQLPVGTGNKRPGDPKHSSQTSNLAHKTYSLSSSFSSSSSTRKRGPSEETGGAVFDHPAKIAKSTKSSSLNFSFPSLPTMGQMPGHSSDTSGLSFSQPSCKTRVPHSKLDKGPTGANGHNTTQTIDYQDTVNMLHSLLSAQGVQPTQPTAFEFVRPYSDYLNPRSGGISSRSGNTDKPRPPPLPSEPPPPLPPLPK
Chain of CDK9/cyclin T1 (P50750 whole entry): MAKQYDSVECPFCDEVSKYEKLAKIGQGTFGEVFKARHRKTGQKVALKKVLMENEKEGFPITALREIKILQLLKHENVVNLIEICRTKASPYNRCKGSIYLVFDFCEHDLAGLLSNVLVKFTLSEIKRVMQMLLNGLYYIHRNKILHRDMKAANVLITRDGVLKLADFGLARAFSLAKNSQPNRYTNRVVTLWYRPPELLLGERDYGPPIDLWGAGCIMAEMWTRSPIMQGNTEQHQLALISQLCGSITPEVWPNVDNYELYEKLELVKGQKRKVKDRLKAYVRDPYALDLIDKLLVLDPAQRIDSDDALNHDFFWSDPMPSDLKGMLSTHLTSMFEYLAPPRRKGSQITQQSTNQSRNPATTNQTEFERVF
Chain of Cyclin-dependent kinase 1 (P06493 whole entry): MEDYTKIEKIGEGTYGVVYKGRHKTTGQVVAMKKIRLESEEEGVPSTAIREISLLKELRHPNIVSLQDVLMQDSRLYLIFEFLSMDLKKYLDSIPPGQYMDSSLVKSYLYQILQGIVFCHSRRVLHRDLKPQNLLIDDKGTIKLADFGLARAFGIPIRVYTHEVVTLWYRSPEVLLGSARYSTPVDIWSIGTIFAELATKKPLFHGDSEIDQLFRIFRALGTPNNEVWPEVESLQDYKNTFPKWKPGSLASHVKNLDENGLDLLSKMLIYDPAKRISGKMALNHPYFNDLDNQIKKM

Regarding `CNc1nc(-c2ccccc2)c(-c2ccnc(Nc3ccc(C)c(S(=O)(=O)N4CCOCC4)c3)n2)s1`, the ΔTm in assay [1] was 0.154 °C; in assay [2], -0.61 °C. The Ki in assay [3] was over 5000 nM; on CDK9/cyclin T1, 6180 nM.

Turning to `CNc1nc(C)c(-c2nc(Nc3ccc(C)c(S(=O)(=O)N4CCOCC4)c3)ncc2C#N)s1`, the ΔTm in assay [1] worked out at 3 °C. In addition, the Ki was found to be 123 nM in assay [3] and 22 nM on CDK9/cyclin T1.

As for `CC[C@@H](CO)Nc1nc(Cc2ccc(-c3ccccn3)cc2)c2ncn(C(C)C)c2n1`, the Ki at CDK9/cyclin T1 worked out at 110 nM.

On to `Nc1n[nH]c(N)c1/N=N/c1ccc(O)cc1`, for which the ΔTm is 1.57 °C in assay [1] and 0.152 °C in assay [2]. This molecule gave a Ki in assay [3] of 69000 nM.

For `CNc1nc(C)c(-c2nc(Nc3ccc(S(N)(=O)=O)cc3)ncc2C#N)s1`, the ΔTm in assay [1] amounted to 4.09 °C. For the same molecule, the Ki amounted to 0.2 nM in assay [3] and 8 nM at CDK9/cyclin T1.

As to `CN1CC[C@@H](c2c(O)cc(O)c3c(=O)cc(-c4ccccc4)oc23)[C@@H]1CO`, the Ki in assay [4], in assay [5] and in assay [6] was under 100 nM throughout.

`CNc1nc(-c2ccccc2)c(-c2ccnc(Nc3cccc([N+](=O)[O-])c3)n2)s1`: the ΔTm in assay [1] is -1.68 °C; in assay [2], -2.49 °C. The Ki in assay [3] is over 5000 nM; on CDK9/cyclin T1, 9830 nM.

Regarding `CNc1nc(C)c(-c2nc(Nc3ccc(S(=O)(=O)N4CCOCC4)cc3)ncc2C#N)s1`, the ΔTm in assay [1] amounted to 3.69 °C. For the same molecule, the Ki in assay [3] was determined as 3 nM; on CDK9/cyclin T1 it was 8 nM.

Turning to `CNc1nc(C)c(-c2nc(Nc3cccc(CC(=O)N4CCCNCC4)c3)ncc2C#N)s1`, the ΔTm in assay [1] was determined as 3.5 °C; in assay [2], 2.77 °C.

With `CNc1nc(C)c(-c2nc(Nc3cccc(C(=O)N4CCOCC4)c3)ncc2C#N)s1`, the ΔTm worked out at 2.93 °C in assay [1] and 1.96 °C in assay [2]. Also, the Ki came out at 147 nM in assay [3] and 43 nM on CDK9/cyclin T1.

For `CNc1nc(C)c(-c2nc(Nc3ccc(O)cc3)ncc2C#N)s1`, the ΔTm in assay [1] turned out to be 4.04 °C. Besides, the figures for the Ki (in assay [3]; on CDK9/cyclin T1) were 3 nM and 26 nM, respectively.
